Tests used:
S. pneumoniae cells = assay: 3D-SIM imaging of lactone probe labeled cells; type: cell-based; conditions: for late divisional cells showing central septal labeling: untreated, ≈41 cells examined
Method: Cells from an overnight culture were diluted to OD620 0.02 in 2 ml of fresh BHI prewarmed to 37° C. and incubated at 37° C. in an atmosphere of 5% CO2. At OD620 0.2, 1.5 ml of culture was added to a microfuge tube and centrifuged at room temperature for 5 min at 16000×g. The supernatant was discarded, the pellet was resuspended in 1 ml room temperature PBS, and the culture was centrifuged a second time. The supernatant was discarded and the pellet was resuspended in either 50 μl of PBS with 5 μg mL^−1 7FL or 100 μl PBS with 5 μg mL^−1 8T. The cells were incubated for 20 min at room temperature in the dark. After incubation the cells were spun and washed with 1 ml of PBS (7FL) or 1 ml of PBS containing 50 mM glucose (8T). The cells were spun a second time and washed with 200 μl of PBS (7FL) or 200 μl of PBS with 50 mM glucose (8T), and finally spun a third time and resuspended in 100 μl of cold (4° C.) GTE buffer (50 mM glucose, 20 mM Tris pH 7.5, 1 mM EDTA). The cells were spun down at 4° C., the supernatant was discarded, and the pellet was resuspended in 15 μl of Vectashield Hardest Antifade (Vector Labs) and kept on ice. 1.2 μl of cells in antifade was pipetted onto a clean coverslip, applied to a slide, and imaged via 3D-SIM. 3D-SIM was performed using the OMX 3D-SIM super-resolution system located in the Indiana University Bloomington Light Microscopy Imaging Center (www.indiana.edu/˜lmic/microscopes/index.html#OMX). The system used is equipped with four Photometrics Cascade II EMCCD cameras that allow simultaneous imaging of up to four colors, and is controlled by DV-OMX software, with image processing by Applied Precision softWoRx 6.0.0 software. Exposure times and % T settings for DAPI, Alexa 488, and Alexa 568 images were 5 ms and 100% for all three channels.
For pre-treatment with methicillin followed by lactone probe labeling, duplicate 2 ml cultures of each strain were created and incubated as described above. At OD620 0.12, methicillin was added to a final concentration of 0.1 μg mL^−1 to one culture for each strain, and the strains were placed back in the incubator. After 20 min, all cultures were harvested, labeled, and imaged as described above.
For labeling of cells with both lactone probes, the following changes were made: After a 20 min incubation with 7FL, the cells were spun down and washed once in 1 ml of PBS. The cells were spun again and resuspended in 100 μl of 8T in PBS at 5 μg mL^−1. The cells were incubated for 20 min at room temperature in the dark, and then washed and imaged as described above for 8T labeling.

PBPs = assay: Gel-based analysis of β-lactone probes applied to Bacillus subtilis PY79 cells; type: cell-based; conditions: B. subtilis PY79 cells, probe 5 μg/ml
Method: Bacillus subtilis strain PY79, was grown in Luria Bertani (LB) medium in 100×17 mm tubes by incubation at 37° C., shaking at 200 rpm. For labeling experiments, overnight cultures were diluted to OD600=0.01-0.05 and grown as above. Samples with OD600=0.35-0.40 were utilized in labeling experiments conducted as previously described (Kocaoglu, O, et al. (2013) Curr Protoc Chem Biol 5, 239), and summarized as follows: Cell pellets from 1.0 ml of B. subtilis cultures were harvested by centrifugation (8,000×g for 2 min at RT) and washed with phosphate buffered saline (PBS; pH 7.4). […] The protein concentration was measured by NanoDrop 1000 Spectrophotometer (Thermo Scientific) or NanoPhotometer P330 (IMPLEN). […] The protein bands were separated by gel electrophoresis for 1.5 h at 180 V, 400 mA, 60 W. The gel was rinsed with distilled water three times before fluorescence scanning (method description for FIGS. 10a and 10b). […]
After SDS-PAGE, labeled proteins were visualized at 50-μm resolution in gels using a Typhoon 9210 gel scanner (Amersham Biosciences) with 580-nm bandpass filter for TAMRA, 526-nm short-pass filter for fluorescein and BODIPY FL, and 670-nm bandpass filter for BODIPY 650/665. All gel images were analyzed using ImageJ software (National Institutes of Health). […]

| Substance | cells with labeling excluded from the center of the division site (S. pneumoniae cells; after pre-treatment with 7FL, wild-type and Δpbp1b cells) | late divisional cells showing central septal labeling (S. pneumoniae cells; wild-type) | late divisional cells showing central septal labeling (S. pneumoniae cells; Δpbp1b) | PBPs labeled (gel-based labeling profile) (PBPs) |
| --- | --- | --- | --- | --- |
| (2S, 3R)-β-lactone-D-Phe-TAMRA [Probe 8T] | > 83% | 80.5% | 75.6% | PBP1, PBP2b and PBP5 |
| (2S,3R)-β-lactone-L-Phe-fluorescein [Probe 7FL] |  | 85% | 73% | comparable to the TAMRA probes |
